Assay results published in patent US4203909A, “Furan compounds” (Bristol-Myers Company, priority 1978, dated 1980).
Blank lines part the entries; values can stand above or below the compound they belong to.

Key:
[1] = target: T1, histamine H2 -receptors (isolated guinea pig right atria) (Cavia porcellus, UniProt P47747); assay: Histamine H2-receptor antagonism, isolated guinea pig atria assay; assay type: cell-based, guinea pig (male Hartley strain); conditions: for Histamine ED50 With 95% Confidence Limits: histamine ED50 in presence of test compound 3 × 10^-5 M, 30 minute incubation; for Concentration-Response Curve Displacement Factor / Activity Ratio Relative to Cimetidine: test compound 3 × 10^-5 M; for Activity Ratio Relative to Cimetidine: cimetidine = 1.0
T1 construct: The spontaneously beating right atrium was dissected free from other tissues; from tissue; host or cells: isolated spontaneously beating right atrium of male Hartley guinea pigs
T1 sequence (P47747 whole entry): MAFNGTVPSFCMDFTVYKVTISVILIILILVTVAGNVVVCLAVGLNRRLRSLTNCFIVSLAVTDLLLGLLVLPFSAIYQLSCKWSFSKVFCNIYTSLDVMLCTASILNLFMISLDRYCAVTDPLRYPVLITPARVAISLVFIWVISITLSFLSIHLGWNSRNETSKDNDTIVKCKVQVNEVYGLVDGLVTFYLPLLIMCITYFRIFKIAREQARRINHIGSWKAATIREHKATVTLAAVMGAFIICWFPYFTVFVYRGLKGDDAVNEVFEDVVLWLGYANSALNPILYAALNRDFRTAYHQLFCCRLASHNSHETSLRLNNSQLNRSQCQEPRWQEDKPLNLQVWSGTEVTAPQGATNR
Method: Subsequent investigations by Hughes and Coret, Proc. Soc. […] Black et al., Agents and Actions, 3, 133 (1973) and Brimblecombe et al., Fed. […] The present comparative studies were carried out using a modification of the procedure reported by Reinhardt et al., Agents and Actions, 4, 217 (1974).
Male Hartley strain guinea pigs (350-450 gm.) were sacrificed by a blow on the head. The heart was excised and placed in a Petri dish of oxygenated (95% O2, 5% CO2) modified Krebs solution (g./liter: NaCl 6.6, KCl 0.35, MgSO4.7 H2 O 0.295, KH2 PO4 0.162, CaCl2 0.238, NaHCO3 2.1 and dextrose 2.09). The spontaneously beating right atrium was dissected free from other tissues and a silk thread (4-0) attached to each end. The atrium was suspended in a 20 ml. muscle chamber containing oxygenated modified Krebs solution maintained at 32° C. Atrial contractions were recorded isometrically by means of a Grass FT 0.03 force displacement transducer and recordings of contractile force and rate were made with a Beckman RP Dynograph.
A resting tension of 1 g. was applied to the atrium and it was allowed to equilibrate for 1 hour.
Concentration-response curve displacement factors were calculated as follows: [formula] […] [formula]

[2] = tested on: gastric acid output; assay: Gastric antisecretory activity in the gastric fistula dog; assay type: in vivo, beagle dogs; conditions: for Percent Inhibition Acid Output: histamine infusion
Method: Thomas type [Thomas, J. E., Proc. Soc. Exp. Biol. Med., 46, 260 ([…])] stainless steel cannulae are inserted into the stomachs of beagle dogs (10-12 kg.) just orad to the pyloric gland area near the greater curvature to provide a chronic gastric fistula. Animals are allowed to recover for at least two months before any testing is done. Dogs are fasted overnight (~18 hours) with water ad lib prior to each experiment. The dogs are placed in a sling and an eight inch inside needle catheter (C. R. Baird, Inc.) with a two inch 17 gauge needle is inserted into a leg vein for purposes of drug administration. Gastric secretions are collected every 15 minutes by gravity drainage from the opened cannula. […] A modification of the procedure described by Grossman and Konturek, Gastroenterology, 66, 517 (1974) was followed. […] Each 15 minute sample of gastric juice is measured to the nearest 0.5 ml. and titratable acidity against 0.02 N NaOH (endpoint pH 7.0) is measured with an Autoburet and pH meter (radiometer). The percent inhibition of acid output is calculated as described in the pylorus ligated rat procedure.

[3] = tested on: gastric acid output; assay: Gastric antisecretory activity in the two hour pylorus ligated (Shay) rat; assay type: in vivo, rat (male Long Evans); conditions: for Percent Inhibition Acid Output / ED50: 2 h; for ED50: two hour pylorus ligated rat; for Potency Ratio: relative to cimetidine = 1.00
From the text: The pyloric ligation procedure in the rat was designed by Shay et al., Gastroenterology, 5, 53 (1945) for the study of perforating gastric ulcers; however, as the method became known, it was also employed as a means of studying rat gastric secretion, Shay et al., Gastroenterology, 26, 906 (1954), Brodie, D. A., Am. J. Dig. Dis., 11, 231 (1966). A modification of this procedure is presently used to evaluate compounds for gastric antisecretory activity.
Male Long Evans rats, 280-300 gm., are used. The aimals are placed in individual cages and fasted for 24 hours with free access to water. Under ther anesthesia, the stomach is reached through a midline incision, and a cotton-thread ligature is placed around the pylorus. […] All compounds are solubilized with one equivalent of HCl and brought to the proper volume with water. The animals are returned to their cages from which the water bottles have been removed and two hours later are sacrificed with ether. The stomach is removed and the two hour gastric collection is drained into a graduated test tube for volume determination. Titratable acidity is measured by titrating a one ml. sample to pH 7.0 with 0.02 N NaOH, using an Autoburet and an electrometric pH meter (Radiometer). Titratable acid output is calculated in microequivalents by multiplying the volume in milliliters by the acid concentration in milliequivalents per liter. The percent inhibition of acid output is calculated as follows [formula]

[4] = tested on: histamine H2 -receptors; conditions: isolated guinea pig right atria; cited from earlier work
[5] = clinical; cited from earlier work
[6] = tested on: H2 receptors; conditions: cited from earlier work
[7] = tested on: peptic ulcer disease; conditions: clinical evaluation; cited from earlier work
[8] = tested on: gastric secretion; conditions: cited from earlier work

Histamine ED50 With 95% Confidence Limits [1]: 32.70 µg/mL
activity relative to Compound XVI ([1]; isolated guinea pig right atria, vs Compound XVI): about 4.80 times
Concentration-Response Curve Displacement Factor [1]: 181.67
Structure (SMILES): C#CCNC(=C[N+](=O)[O-])NCCSCc1ccc(CN(C)C)o1 [BL-5966, 1-Nitro-2-(2-propynylamino)-2-{2-[(5-dimethylaminomethyl-2-furyl)methylthio]ethylamino}ethylene]
potency as histamine H2 receptor antagonist (in words) ([1]; isolated guinea pig atria): more potent than either cimetidine or Compound XVI
Percent Inhibition Acid Output ([2]; 0.0469 μ Mole/kg iv): 32%
Percent Inhibition Acid Output ([2]; 0.0938 μ Mole/kg iv): 47%
Percent Inhibition Acid Output ([2]; 0.1875 μ Mole/kg iv): 46%
Percent Inhibition Acid Output ([2]; 0.375 μ Mole/kg iv): 90%
ED50 ([2]; Canis lupus familiaris, iv, gastric fistula dog): 0.12 µmol/kg
potency as inhibitor of gastric secretion (in words) ([2]; dogs): more potent than either cimetidine or Compound XVI
Potency Ratio ([2]; iv, relative to cimetidine = 1.0): 11.5 times
Percent Inhibition Acid Output ([3]; 0.625 μ Mole/kg ip): 27%
Percent Inhibition Acid Output ([3]; 1.25 μ Mole/kg ip): 36%
Percent Inhibition Acid Output ([3]; 2.5 μ Mole/kg ip): 59%
Percent Inhibition Acid Output ([3]; 5 μ Mole/kg ip): 83%
ED50 ([3]; ip): 1.8 µmol/kg
Potency Ratio ([3]; ip): 5.81 times
potency relative to Compound XVI ([3]; ip, vs Compound XVI): 2.52 times
potency as inhibitor of gastric secretion (in words) ([3]; rats): more potent than either cimetidine or Compound XVI

Histamine ED50 With 95% Confidence Limits [1]: 4.28 µg/mL
Concentration-Response Curve Displacement Factor [1]: 23.78
Activity Ratio Relative to Cimetidine [1]: 0.94 times
Activity Ratio Relative to Cimetidine ([1]; listed as BL-5933): about 0.94 times
Structure (SMILES): C#CCNC(=NCCSCc1ccc(CN(C)C)o1)NC#N [BL-5993, N-Cyano-N'-(2-propyn-1-yl)-N"-{2-[(5-dimethylaminomethyl-2-furyl)methylthio]ethyl}guanidine]
Percent Inhibition Acid Output ([3]; 10 μ Mole/kg ip): 34%
Percent Inhibition Acid Output ([3]; 20 μ Mole/kg ip): 71%
ED50 ([3]; ip): 12.5 µmol/kg
Potency Ratio ([3]; ip): 0.83 times

Structure (SMILES): NCCc1c[nH]cn1 [Histamine]
H2-receptor mediated effect in atria (in words) [4]: concentration-related increases in the contractile rate

Structure (SMILES): CN=C(NC#N)NCCSCc1nc[nH]c1C [Cimetidine]
Histamine ED50 With 95% Confidence Limits [1]: 4.80 µg/mL
Concentration-Response Curve Displacement Factor [1]: 25.26
toxicity (agranulocytosis) [5]: without producing agranulocytosis
H2 antagonist potency/effectiveness (in words) [6]: as effective an H2 antagonist as metiamide
clinical effectiveness [7]: effective therapeutic agent in the treatment of peptic ulcer disease

Structure (SMILES): CNC(=C[N+](=O)[O-])NCCSCc1ccc(CN(C)C)o1 [Compound XVI, reference compound]
Histamine ED50 With 95% Confidence Limits [1]: 11.97 µg/mL
Concentration-Response Curve Displacement Factor [1]: 38.61
Percent Inhibition Acid Output ([3]; 5 μ Mole/kg ip): 42%
Percent Inhibition Acid Output ([3]; 10 μ Mole/kg ip): 77%
Percent Inhibition Acid Output ([3]; 20 μ Mole/kg ip): 89%
ED50 ([3]; ip): 4.52 µmol/kg
Potency Ratio ([3]; ip): 2.31 times

Structure (SMILES): CNC(=S)NCCSCc1nc[nH]c1C [Metiamide]
toxicity (agranulocytosis) [5]: toxicity (agranulocytosis)
H2 antagonist potency/effectiveness (in words) [6]: more potent than burimamide
oral activity ([8]; man, oral): orally active in man

Structure (SMILES): CNC(=S)NCCCCc1cnc[nH]1 [Burimamide]
H2-receptor mediated effect in atria (in words) [4]: competitive antagonist of these receptors
inhibition of gastric secretion ([8]; animals and man): inhibits gastric secretion in animals and man
clinical effectiveness [7]: first clinically effective H2 -receptor antagonist
